The values below come from US7015212B1, “Thiazepine inhibitors of HIV-1 integrase” (The United States of America as represented by the …, priority 1999, dated 2006).

Values joined by “and” are separate entries in the source; they are usually repeats but may differ in a detail not shown here. Equal entries are not always repeated. Where two headings read alike, the source gives them in different places. A value given as a limit tells only on which side of the number the result lay.

Data set [1] deals with T4 lymphocytes (CEM cell line). In words: Cytotoxicity in uninfected CEM cells (XTT toxicity control). The following applies: read-out: Cell data (μM) CC50: 50% cytotoxic concentration; uninfected CEM cells, 6 days, XTT. How it is done:
(§1) The anti-HIV drug testing was performed at NCI based on a protocol described by Weislow et al.^36 All compounds were dissolved in dimethyl sulfoxide and diluted 1:100 in cell culture medium. Exponentially growing T4 lymphocytes (CEM cell line) were added at 5000 cells per well. Frozen virus stock solutions were thawed immediately before use, suspended in complete medium to yield the desired multiplicity of infection (m. o. i.≈0.1), and added to the microtiter wells, resulting in a 1:200 final dilution of the compound. Uninfected cells with the compound served as a toxicity control, and infected and uninfected cells without the compound served as basic controls.
(§2) Cultures were incubated at 37° C. in a 5% CO2 atmosphere for 6 days. The tetrazolium salt, XTT was added to all wells, and cultures were incubated to allow formazan color development by viable cells. Individual wells were analyzed spectrophotometrically to quantitate formazan production, and in addition were viewed microscopically for detection of viable cells and confirmation of protective activity.
(In general: Tetrazolium dyes change colour on reduction, which living cells bring about.)

Data set [2] concerns the target T1, purified HIV-1 integrase (HIV-1 IN) (Human immunodeficiency virus type 1 group M subtype B, UniProt P12497). In words: biochemical.
Protocol: (§3) To analyze the extent of 3′-processing and strand transfer using 5′-end labeled substrates, AE118 was 5′-end labeled using T4 polynucleotide kinase (Gibco BRL) and γ[^32P]-ATP (Dupont-NEN). To determine the extent of 30mer target strand generation during disintegration, AE157 was 5′-end labeled and annealed to AE156, AE146, and AE117. The kinase was heat-inactivated and AE117 was added to the same final concentration. The mixture was heated at 95° C., allowed to cool slowly to room temperature, and run through a G-25 Sephadex quick spin column (Boehringer Mannheim, Indianapolis, Ind.) to separate annealed double-stranded oligonucleotide from unincorporated label.
(§4) To determine the extent of 3′-processing and strand transfer, integrase was preincubated at a final concentration of 200 nM with the inhibitor in a reaction buffer (50 mM NaCl, 1 mM HEPES, pH 7.5, 50 μM EDTA, 50 μM dithiothreitol, 10% glycerol (w/v), 7.5 mM MnCl2, 0.1 mg/ml bovine serum albumin, 10 mM 2-mercaptoethanol, 10% dimethyl sulfoxide, and 25 mM MOPS, pH 7.2) at 30° C. for 30 minutes. Then, 20 nM of the 5′-end ^32P labeled linear oligonucleotide substrate was added, and incubation was continued for an additional one hour. Reactions were quenched by the addition of an equal volume (16 μ) of loading dye (98% deionized formamide, 10 mM EDTA, 0.025% xylene cyanol and 0.025% bromophenol blue). An aliquot (5 μl) was electrophoresed on a denaturing 20% polyacrylamide gel (0.09 M tris-borate pH 8.3, 2 mM EDTA, 20% acrylamide, 8M urea).
(§5) Gels were dried, exposed in a PhosphorImager cassette, and analyzed using a Molecular Dynamics PhosphorImager (Sunnyvale, Calif.). Percent inhibition was calculated using the following equation: % I=100×[1−(D−C)/(N−C)] where C, N, and D are the fractions of 21-mer substrate converted to 19-mer (3′-processing product) or strand transfer products for DNA alone (C), DNA plus integrase (N), and integrase plus drug (D). All IC50 values were determined by plotting the drug concentration versus percent inhibition, and determining the concentration which produced 50% inhibition.
Data set [3] is described as follows: Cytotoxicity in uninfected CEM cells (XTT toxicity control). Conditions: human, uninfected CEM cells (T4 lymphocytes). How it is done:
as §1, §2

The test system of another data set is HIV-1 infected CEM cells. As to the kind of experiment: Anti-HIV assay in cultured CEM cells (NCI XTT protocol). It is filed as cell-based. How it is done: as §1, §2
The target of the next data set is T2, HIV-1 IN (Human immunodeficiency virus type 1 group M subtype B, UniProt P12497).
T2 construct: An expression system for the wild-type integrase and the IN^50–212 (F185K) were obtained from the Laboratory of Molecular Biology, NIDDK; made in house
As to the kind of experiment: HIV-1 integrase inhibition with Mg+2 as cofactor (gel assay). Conditions: compared with Mn+2, 1000, 333, 111, 37 μM. It is filed as biochemical. How it is done:
FIGS. 2 and 3 show concentration dependent inhibition of HIV-1 IN by thiazolothiazepines 1, 19, and 20 using Mn^+2 (FIG. 2) and Mg^+2 (FIG. 3) as a cofactor. Lane 1, DNA alone, lanes 2 and 15 DNA and integrase, lanes 3–6, 7–10, 11–14 DNA, integrase, and compounds 1, 19, and 20 at 1000, 333, 111, and 37 μM, respectively. See Table 1 for compound identifiers 1, 19, 20.
A 21-mer oligonucleotide corresponding to the last 21 bases on the HIV-1 viral DNA in the U5 region of long terminal repeat (LTR) was radiolabeled with ^32P. This is shown in the FIGS. 2 and 3 as a band corresponding to DNA alone. Integrase will cleave the last two bases of this DNA in the presence of Mn^+2 or Mg^+2 to give a 19-mer DNA substrate (lane 2) which runs faster on the gel and is indicated as 19-mer on the Figures. When an inhibitor is added this process is blocked, therefore the original 21-mer DNA would not be cut. When an inhibitor is added at various concentrations, percent inhibition at every concentration will be calculated by quantification of the intensity of each band using an Imagequant program.
The gels are run using polyacrylamide according to the standard procedures. Upon completion of electrophoresis run, the gels are dried and exposed to a phosphorimager cassette. The cassettes are analyzed by the phosphorimager, and the bands are shown on a computer screen. The intensity of each band is quantitated, plotted against concentrations of drugs, and the IC50 values are calculated from the graphs.

Data set [4] concerns the target T1, purified HIV-1 integrase (HIV-1 IN).
Protocol: as §3, §4, §5
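For IC50 in this document: integrase at 200 nM exposed to inhibitor 30 min at 30 °C, then 1 h with 20 nM 5′-32P-labelled 21-mer DNA, 3′-processing or strand transfer products quantified on denaturing gels versus no-drug enzyme.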

On to `O=C1Sc2ccc(Cl)cc2C(=O)N2CCSC12` (racemic) [Compound 2, (±)-7-Chloro-2,3-dihydro-5H-thiazolo[2,3-c][1,4]benzothiazepine-5,11 (11aH)-dione], for which, in data set [1], the CC50 is over 50 µM.

Turning to `O=C1Sc2ccc(Br)cc2C(=O)N2CCSC12` (racemic) [Compound 3, (±)-7-Bromo-2,3-dihydro-5H-thiazolo[2,3-c][1,4]benzothiazepine-5,11 (11aH)-dione], the melting point lay within 219 to 220 °C.

`Cc1ccc2c(c1)C(=O)N1CCSC1C(=O)S2` (racemic) [Compound 4, (±)-2,3-Dihydro-7-methyl-5H-thiazolo[2,3-c][1,4]benzothiazepine-5,11 (11aH)-dione]: the IC50 in data set [2] is 55 µM and 64 µM.

Consider `O=C1Sc2ccccc2C(=O)N2CSCC12` (racemic) [Compound 5], for which the IC50 in data set [2] is 227 µM and 208 µM. The compound also had a CC50 at 6 days in data set [3] of over 200 µM.

In the case of `O=C1Sc2ccc(Cl)cc2C(=O)N2CSCC12` (racemic) [Compound 6, (±)-7-Chloro-1,11a-dihydro-3H,5H,11H-thiazolo[4,3-c][1,4]benzothiazepine-5,11-dione], the melting point fell in the range of 204 to 205 °C. Besides, the CC50 in data set [1] was over 100 µM.

With `O=C1Sc2ccc(Br)cc2C(=O)N2CSCC12` (racemic) [Compound 7, (±)-7-Bromo-1,11a-dihydro-3H,5H,11H-thiazolo[4,3-c][1,4]benzothiazepine-5,11-dione], the melting point lay within 213 to 214 °C. Also, the CC50 in data set [1] is over 200 µM.

For `Cc1ccc2c(c1)C(=O)N1CSCC1C(=O)S2` (racemic) [Compound 8, (±)-1,11a-Dihydro-7-methyl-3H,5H,11H-thiazolo[4,3-c][1,4]benzothiazepine-5,11-dione], the CC50 in data set [1] turned out to be 35 µM.

`O=C1Sc2cc([N+](=O)[O-])ccc2C(=O)N2CSCC12` (racemic) [Compound 9, (±)-1,11a-Dihydro-8-nitro-3H,5H,11H-thiazolo[4,3-c][1,4]benzothiazepine-5,11-dione] showed a melting point of 231 to 232 °C. For the same compound, in data set [1], the CC50 was over 50 µM.

Take `COc1ccc2c(c1)C(=O)N1CSCC1C(=O)S2` (racemic) [Compound 10, (±)-1,11a-dihydro-7-methoxy-3H,5H, 11H-thiazolo[4,3-c][1,4]benzothiazepine-5,11-dione]: the CC50 in data set [1] was over 200 µM.

`Cc1ccc2c(c1)C(=O)N1CC[S+]([O-])C1C(=O)S2` (racemic) [Compound 15, (±)-cis-2,3-Dihydro-7-methyl-5H-thiazolo[2,3-c][1,4]benzothiazepine-5,11 (11aH)-dione 1-Oxide] came in with a melting point of 211 to 212 °C. This compound also returned a half-maximal inhibitory concentration (IC50) in data set [2] of 590 ± 350 µM. In addition, in data set [3], the CC50 at 6 days is over 100 µM.

For `O=C1Sc2ccccc2C(=O)N2C[S+]([O-])CC12` (racemic) [Compound 16, (±)-cis-1,11a-Dihydro-3H,5H,11H-thiazolo[4,3-c][1,4]benzothiazepine-5,11-dione 2-oxide], the IC50 in data set [2] is 215 µM and 222 µM and 200 µM and 185 µM.

In the case of `O=C1Sc2ccc(Cl)cc2C(=O)N2C[S+]([O-])CC12` (racemic) [Compound 17, (±)-cis-7-Chloro-1,11a-dihydro-3H,5H,11H-thiazolo[4,3-c][1,4]benzothiazepine-5,11-dione 2-Oxide], the melting point fell in the range of 213 to 215 °C. In data set [2], the IC50 is 280 µM and 200 µM and 260 µM and 215 µM.

Compound `COc1ccc2c(c1)C(=O)N1C[S+]([O-])CC1C(=O)S2` (racemic) [Compound 18, (±)-cis-1,11a-Dihydro-7-methoxy-3H,5H,11H-thiazolo[4,3-c][1,4]benzothiazepine-5,11-dione 2-Oxide] displayed a melting point of 172 to 174 °C. Further, the IC50 in data set [2] is 142 µM and 84.5 µM.

The compound `O=C1Sc2cc3ccccc3cc2C(=O)N2CCSC12` (racemic) [Compound 19, (±)-2,3-Dihydro-5H-naphto[2,3-f]thiazolo[2,3-c][1,4]thiazepine-5,13(13aH)-dione] yielded an IC50 in data set [2] of 47 ± 6 µM. Besides, the “therapeutic index (TI=CC50/EC50)” value in the data set on HIV-1 infected CEM cells is listed as over 5. The “activity against IN in the presence of Mg+2” value (“activity” below) on HIV-1 IN is “active in the presence of Mg^+2 within the same concentration range as in Mn^+2”. The CC50 at 6 days in data set [3] is over 316 µM.

Consider `O=C1Sc2cc3ccccc3cc2C(=O)N2CSCC12` (racemic) [Compound 20, (±)-1,13a-Dihydro-3H,5H,11H-naphto[2,3-f]thiazolo[4,3-c][1,4]thiazepine-5,13-dione], for which, in data set [2], the IC50 was 92 µM and 100 µM. Besides, the “activity” value at HIV-1 IN is “active in the presence of Mg^+2 within the same concentration range as in Mn^+2”. This compound returned a CC50 at 6 days in data set [3] of over 316 µM.

Take `O=C1c2ccccc2SC(O)(c2ccccc2)C2CCCN12` (racemic) [Compound 26, (±)-2,3,11,11a-Tetrahydro-11-hydroxy-11-phenyl-1H,5H-pyrrolo [2,1-c][1,4]benzothiazepin-5-one]: the melting point lay within 137 to 141 °C.

With `CN1CCN([C@@H]2Sc3ccccc3C(=O)N3CCC[C@@H]23)CC1` (racemic) [Compound 27, (±)-cis-2,3,11,11a-Tetrahydro-11-(4-methylpiperazin-1-yl)-1H,5H-pyrrolo[2,1-c][1,4]benzothiazepin-5-one], in data set [1], the CC50 is over 125 µM.

`CN1CCN(Cc2ccc3n2Cc2ccccc2SC3c2ccccc2)CC1` (racemic) [Compound 31, (±)-3-[(4-Methylpiperazin-1-yl)methyl]-11-phenyl-5H,11H-pyrrolo [2,1-c][1,4]benzothiazepine] registered a melting point of 161 to 162 °C.

For `O=C1Sc2ccccc2C(=O)N2CCSC12` (stereo not drawn) [Compound 1], in data set [2], the IC50 is 110 µM and 146 µM. Further, the “therapeutic index (TI=CC50/EC50)” value in the data set with HIV-1 infected CEM cells is over 1.8. Also, at HIV-1 IN, the “activity” value is on record as “active in the presence of Mg^+2 within the same concentration range as in Mn^+2”. In data set [3], the CC50 at 6 days was over 200 µM.

Regarding `COc1cc2c(cc1OC)C(=O)N1CSCC1C(=O)S2` (stereo not drawn) [Compound 11], in data set [2], the IC50 is 330 µM and 670 µM and 630 µM. Besides, the CC50 at 6 days in data set [3] was over 50 µM.

Consider `COc1cc2c(cc1OC)C(=O)N1CCCC1C(=O)S2` (stereo not drawn) [Compound 13], for which the CC50 at 6 days in data set [3] is over 200 µM.

Turning to `O=C1Sc2ccccc2C(=O)N2CCCCC12` (stereo not drawn) [Compound 14], the IC50 in data set [2] was 343 µM and 406 µM and 495 µM. Moreover, the CC50 at 6 days in data set [3] was over 200 µM.

`CC(=O)OC1Sc2ccccc2C(=O)N2CCCC12` (stereo not drawn) [Compound 21]: the CC50 at 6 days in data set [3] is over 200 µM.

As for `COC1Sc2ccccc2C(=O)N2CCCC12` (stereo not drawn) [Compound 22], the CC50 in data set [1] is over 200 µM.

The compound `COc1cc2c(cc1OC)C(=O)N1CCCC1CS2` (stereo not drawn) [Compound 24] gave a CC50 at 6 days in data set [3] of over 200 µM.

Take `O=C1c2ccccc2SC(O)C2CCCN12` (stereo not drawn) [Compound 25]: in data set [3], the CC50 at 6 days was over 200 µM.

`O=C1Sc2ccccc2Cn2cccc21` [Compound 28]: the IC50 in data set [4] is 590 µM and 300 µM. Moreover, the CC50 in data set [1] was over 200 µM.

In data set [2], `CCOC(=O)C1Sc2ccccc2C(=O)n2cccc21` (stereo not drawn) [Compound 29] gave an IC50 of over 1000 µM.

In the case of `CN(C)Cc1ccc2n1C(=O)c1ccccc1SC2c1ccc(F)cc1` (stereo not drawn) [Compound 30], in data set [2], the IC50 was over 1000 µM.

A word on the melting point: it is the temperature, or range, at which the solid turns liquid. Usually IC50 stands for the concentration that inhibits the measured activity by half. Low values mean greater potency in that assay, high ones weaker potency in that assay.
